From US5001048A (priority 1987, dated 1991)
Values joined by “and” are separate entries in the source; they are usually repeats but may differ in a detail not shown here. Equal values may be shown once. Read-outs that look alike come from different tables or passages of the source.

Assays:
[1] = test system: acetylcholine receptor (AChR); assay type: binding, Electrophorus electricus; conditions: for % Activity Increase: 24 to 48 hours after immobilization, over nondetergent containing membrane; for stabilization of AChR activity in the membrane (in words): retention of binding activity at immobilization and after storage
[2] = Control sensor (same formulation, no AChR added) impedance response to agent challenge; conditions: 50 to 100 uL
Procedure: (§1) All measurements utilized wetted biosensors (i.e., sensors presoaked in deionized water and test buffer). The biosensor was washed with deionized water to a constant output value (that is, it maintained the same impedance value upon further washing). This established a baseline value for the sensor in absence of ligand. Test samples in buffer were then added. Output (changes in impedance, etc) was recorded as a function of time.
(§2) Two approaches were used to evaluate the functionality of the two types (i.e., receptor and antibody-based) of biosensors. In the first approach, measurements were taken sequentially on control and test sensors ("chips") and compared. This approach can be done quickly for rapid evaluation of a sensor (FIGS. 1 and 3). However, background (i.e., non specific binding to the sensor) is not subtracted out automatically. […] This allows for simultaneous challenge (i.e., challenge of both the control and the receptor-containing biosensor at the same time) and background is automatically subtracted out.
(§3) In the case in which sequential measurements were used, alternating current measurements were made on the sensors, and changes were recorded in impedance (measured in ohms), capacitance or phase angle. Samples in volumes of 5 to 200 microliters (ul) were analyzed; […].
(§4) Typically, a sample to be tested (i.e., one thought to contain an analyte of interest) was applied to a sensor which had been previously equilibrated with deionized water and readings of output impedance from the sensor were taken. Equilibration to constant readings occurred within 2 to 10 sec. Readings remained stable for at least the 5 minutes during which the output was routinely monitored. The sensor was then washed with deionized water to background equilibrium, sample was again added and readings were taken. In each case 2 to 5 cycles were carried out in this way.
^b Control sensor is the same formulation as AChR but with no AChR

[3] = test system: immobilized acetylcholine receptor (AChR); test: AChR sensor alternating current impedance response to agent challenge; assay type: binding, Electrophorus electricus; conditions: for AChR sensor response: 50 to 100 uL
Procedure: as §1, §2, §3, §4

CCCCCCCCCCCCCCCC[N+](C)(C)C.[Br-] [CTAB, cetyltrimethylammonium bromide]
% Activity Increase ([1]; detergent 0.5% by volume): 4%
% Activity Increase ([1]; detergent 1.0% by volume): 18%
% Activity Increase ([1]; detergent 2.0% by volume): 28%

glucose
Control sensor response ([2]; agent 0.5 ug/ml): 28 K.OMEGA.
Control sensor response ([2]; agent 5 ug/ml): 33 K.OMEGA.
Control sensor response ([2]; agent 50 ug/ml): 33 K.OMEGA.
Control sensor response ([2]; agent 500 ug/ml): 58 K.OMEGA.
% Change of AChR sensor with respect to control ([3]; agent 0.5 ug/ml): 3%
AChR sensor response ([3]; agent 0.5 ug/ml): 29 K.OMEGA.
% Change of AChR sensor with respect to control ([3]; agent 5 ug/ml): 0%
AChR sensor response ([3]; agent 5 ug/ml): 33 K.OMEGA.
% Change of AChR sensor with respect to control ([3]; agent 50 ug/ml): 6%
AChR sensor response ([3]; agent 50 ug/ml): 35 K.OMEGA.
% Change of AChR sensor with respect to control ([3]; agent 500 ug/ml): 5%
AChR sensor response ([3]; agent 500 ug/ml): 61 K.OMEGA.
change in resistance between control and AChR sensors (in words) ([3]; dose-response, Table 5): no change

octylphenoxy polyethoxyethanol [Triton ™ X-100]
% Activity Increase ([1]; detergent 0.1% by volume): 12%
% Activity Increase ([1]; detergent 0.5% by volume): 55%
% Activity Increase ([1]; detergent 1.0% by volume): 85%
% Activity Increase ([1]; detergent 2.0% by volume): 110%
stabilization of AChR activity in the membrane (in words) [1]: best stabilizing detergents

CCCCCCCC[N+](C)(C)CCCS(=O)(=O)[O-] [Zwittergent ™ 3-08, N-octyl-N-N dimethyl-3-amino-1-propane sulfonate]
% Activity Increase ([1]; detergent 1.0% by volume): 55% and 30%
% Activity Increase ([1]; detergent 2.0% by volume): 55% and 38%

C[C@H](CCC(=O)O)[C@H]1CC[C@H]2[C@@H]3[C@H](O)C[C@@H]4C[C@H](O)CC[C@]4(C)[C@H]3C[C@H](O)[C@]12C [Sodium cholate, sodium cholate]
% Activity Increase ([1]; detergent 1.0% by volume): 110%
% Activity Increase ([1]; detergent 2.0% by volume): 145%
stabilization of AChR activity in the membrane (in words) [1]: best stabilizing detergents
